# Test results taken from patent US20260191858A1, “COMBINATION THERAPIES” (Kallyope, Inc., priority 2022, published 2026).
# Molecular target: T1, human GPR119 (hGPR119) (Homo sapiens, UniProt Q8TDV5)
# T1 construct: expressed in transfected cells; host or cells: CHO-K1
# T1 sequence (Q8TDV5 1-335): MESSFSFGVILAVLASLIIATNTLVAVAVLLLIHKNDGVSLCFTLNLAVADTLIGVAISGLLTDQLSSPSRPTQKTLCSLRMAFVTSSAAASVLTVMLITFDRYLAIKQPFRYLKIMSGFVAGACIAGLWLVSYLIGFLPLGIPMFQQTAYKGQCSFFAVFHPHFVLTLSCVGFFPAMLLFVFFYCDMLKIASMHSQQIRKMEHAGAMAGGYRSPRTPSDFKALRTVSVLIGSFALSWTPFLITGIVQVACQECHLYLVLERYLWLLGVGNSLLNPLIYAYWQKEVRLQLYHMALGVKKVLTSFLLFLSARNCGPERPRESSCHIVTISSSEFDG
# Experiment: cAMP accumulation assay in CHO-K1 cells stably expressing hGPR119
# Assay type: cell-based
# Settings: cAMP HTRF, 60 minutes
# Protocol: CHO-K1 cells stably expressing human GPR119 (hGPR119) were prepared by transfection of a GPR119-carrying plasmid using Lipofectamine 2000 (following manufacturer instructions). A stable cell line was established using the limiting dilution method with geneticine selection. Assay-ready frozen (ARF) cells were prepared and used throughout the study.
# The assay was performed in a 384-well plate format using the CAMP Gs dynamic assay kit from Cisbio. ARF cells expressing hGPR119 were thawed, washed and then resuspended in CAMP stimulation buffer at a cell density of 1.1×10^6 cells/mL. Cells were plated at a density of ~10,000 cells/well (9 μL/well). Dose response curves for the tested compounds were prepared in a cAMP stimulation buffer, containing 0.1% Tween 80 at 4 fold the final concentration. The compounds were then transferred to the cell plates using BRAVO (3 μL/well) and the plates were incubated for 60 minutes at 37° C./5% CO2. Detection buffer (10 μL, prepared as described in the CAMP Gs dynamic kit) were added to each well, and the plates were incubated at ambient temperature for 1 hr.
# RT-FRET was measured using a ClarioSTAR plate reader, calculating the ratio between emissions at 665 nm and 620 nm (HTRF ratio). The HTRF ratio for positive (Max) and negative (Min) controls were used to normalize HTRF data and generate values for % activity. EC50 and Max activity values were determined using a standard 4-parameter fit.
row,SMILES,EC50
1,"O=C(Cc1ccc(OCCCC2CCN(c3ncc(Cl)cn3)CC2)cc1F)N1CC(CNCC(O)(CO)CO)C1 [Compound A15, 2-[4-[3-[1-(5-chloropyrimidin-2-yl)-4-piperidyl]propoxy]-2-fluoro-phenyl]-1-[3-[[[2,3-dihydroxy-2-(hydroxymethyl)propyl]amino]methyl]azetidin-1-yl]ethanone]",≤ 100 nM
2,"O=C(Cc1ccc(OCCCC2CCN(c3ncc(Cl)cn3)CC2)cc1F)N1CC(CN2C[C@@H](O)[C@@H](O)C2)C1 [Compound A20, 2-[4-[3-[1-(5-chloropyrimidin-2-yl)-4-piperidyl]propoxy]-2-fluoro-phenyl]-1-[3-[rac-(3S,4R)-3,4-dihydroxypyrrolidin-1-yl]methyl]azetidin-1-yl]ethanone]",≤ 100 nM
3,"O=C(Cc1ccc(OCCCC2CCN(c3ncc(Cl)cn3)CC2)cc1F)N1CC(CN2C[C@@H](O)[C@@H](O)[C@@H](O)C2)C1 [Compound A22, 2-[4-[3-[1-(5-chloropyrimidin-2-yl)-4-piperidyl]propoxy]-2-fluoro-phenyl]-1-[3-[[rac-(3R,5S)-3,4,5-trihydroxy-1-piperidyl]methyl]azetidin-1-yl]ethanone]",≤ 100 nM
4,O=C(Cc1ccc(OCCCC2CCN(c3ncc(Cl)cn3)CC2)cc1F)N1CC(CNCCOCCOCCO)C1 [Compound A23],≤ 100 nM
5,"NCCOCCOCCNCC1CN(C(=O)Cc2ccc(OCCCC3CCN(c4ncc(Cl)cn4)CC3)cc2F)C1 [Compound A24, 1-[3-[[2-[2-(2-aminoethoxy)ethoxy]ethylamino]methyl]azetidin-1-yl]-2-[4-[3-[1-(5-chloropyrimidin-2-yl)-4-piperidyl]propoxy]-2-fluoro-phenyl]ethanone]",100 to 1000 nM
6,"O=C(Cc1ccc(OCCCC2CCN(c3ncc(Cl)cn3)CC2)cc1F)N1CC(CCNC(CO)CO)C1 [Compound A26, 2-(4-(3-(1-(5-chloropyrimidin-2-yl)piperidin-4-yl)propoxy)-2-fluorophenyl)-1-(3-(2-((1,3-dihydroxypropan-2-yl)amino)ethyl)azetidin-1-yl)ethan-1-one]",≤ 100 nM
7,"O=C(Cc1ccc(OCCCC2CCN(c3ncc(Cl)cn3)CC2)cc1F)N1CC(CCNCC(CO)CO)C1 [Compound A27, 2-(4-(3-(1-(5-chloropyrimidin-2-yl)piperidin-4-yl)propoxy)-2-fluorophenyl)-1-(3-(2-((3-hydroxy-2-(hydroxymethyl)propyl)amino)ethyl)azetidin-1-yl)ethan-1-one]",≤ 100 nM
8,"O=C(NCCNCCC1CN(C(=O)Cc2ccc(OCCCC3CCN(c4ncc(Cl)cn4)CC3)cc2F)C1)NC(CO)(CO)CO [Compound A30, 1-(2-((2-(1-(2-(4-(3-(1-(5-chloropyrimidin-2-yl)piperidin-4-yl)propoxy)-2-fluorophenyl)acetyl)azetidin-3-yl)ethyl)amino)ethyl)-3-(1,3-dihydroxy-2-(hydroxymethyl)propan-2-yl)urea]",100 to 1000 nM
9,"O=C(Cc1ccc(OCCCC2CCN(c3ncc(Cl)cn3)CC2)cc1F)N1CC(CCNC[C@H](O)[C@@H](O)[C@H](O)[C@H](O)CO)C1 [Compound A31, 2-[4-[3-[1-(5-chloropyrimidin-2-yl)-4-piperidyl]propoxy]-2-fluoro-phenyl]-1-[3-[2-[[(2S,3R,4R,5R)-2,3,4,5,6-pentahydroxyhexyl]amino]ethyl]azetidin-1-yl]ethanone]",100 to 1000 nM
10,"CCc1cnc(N2CCC(CCCOc3ccc(CC(=O)N4CC(CNCC(CO)CO)C4)c(F)c3)CC2)nc1 [Compound A32, 2-(4-(3-(1-(5-ethylpyrimidin-2-yl)piperidin-4-yl)propoxy)-2-fluorophenyl)-1-(3-(((3-hydroxy-2-(hydroxymethyl)propyl)amino)methyl)azetidin-1-yl)ethan-1-one]",100 to 1000 nM
11,"CCc1cnc(N2CCC(CCCOc3ccc(CC(=O)N4CC(CNCC(O)(CO)CO)C4)c(F)c3)CC2)nc1 [Compound A33, 1-(3-(((2,3-dihydroxy-2-(hydroxymethyl)propyl)amino)methyl)azetidin-1-yl)-2-(4-(3-(1-(5-ethylpyrimidin-2-yl)piperidin-4-yl)propoxy)-2-fluorophenyl)ethan-1-one]",≤ 100 nM
12,"CCc1cnc(N2CCC(CCCOc3cc(F)c(CC(=O)N4CC(CNCCNC(=O)NC(CO)(CO)CO)C4)c(F)c3)CC2)nc1 [Compound A38, 1-(1,3-dihydroxy-2-(hydroxymethyl)propan-2-yl)-3-(2-(((1-(2-(4-(3-(1-(5-ethylpyrimidin-2-yl)piperidin-4-yl)propoxy)-2,6-difluorophenyl)acetyl)azetidin-3-yl)methyl)amino)ethyl)urea]",≤ 100 nM

# Now from value to compound:
row,EC50,SMILES
1,≤ 100 nM,"O=C(Cc1ccc(OCCCC2CCN(c3ncc(Cl)cn3)CC2)cc1F)N1CC(CNC(CO)(CO)CO)C1 [Compound A16, 2-[4-[3-[1-(5-chloropyrimidin-2-yl)-4-piperidyl]propoxy]-2-fluoro-phenyl]-1-[3-[[[2-hydroxy-1,1-bis(hydroxymethyl)ethyl]amino]methyl]azetidin-1-yl]ethanone]"
2,≤ 100 nM,O=C(Cc1ccc(OCCCC2CCN(c3ncc(Cl)cn3)CC2)cc1F)N1CC(CNCC(CO)CO)C1 [Compound A17]
3,≤ 100 nM,"O=C(Cc1c(F)cc(OCCCC2CCN(c3ncc(Cl)cn3)CC2)cc1F)N1CC(CNC[C@H](O)[C@@H](O)[C@H](O)[C@H](O)CO)C1 [Compound A25, 2-[4-[3-[1-(5-chloropyrimidin-2-yl)-4-piperidyl]propoxy]-2,6-difluoro-phenyl]-1-[3-[[[(2S,3R,4R,5R)-2,3,4,5,6-pentahydroxyhexyl]amino]methyl]azetidin-1-yl]ethanone]"
4,100 to 1000 nM,"O=C(Cc1ccc(OCCCC2CCN(c3ncc(Cl)cn3)CC2)cc1F)N1CC(CCNCC(O)(CO)CO)C1 [Compound A28, 2-(4-(3-(1-(5-chloropyrimidin-2-yl)piperidin-4-yl)propoxy)-2-fluorophenyl)-1-(3-(2-((2,3-dihydroxy-2-(hydroxymethyl)propyl)amino)ethyl)azetidin-1-yl)ethan-1-one]"
5,100 to 1000 nM,"O=C(Cc1ccc(OCCCC2CCN(c3ncc(Cl)cn3)CC2)cc1F)N1CC(CCNC(CO)(CO)CO)C1 [Compound A29, 2-(4-(3-(1-(5-chloropyrimidin-2-yl)piperidin-4-yl)propoxy)-2-fluorophenyl)-1-(3-(2-((1,3-dihydroxy-2-(hydroxymethyl)propan-2-yl)amino)ethyl)azetidin-1-yl)ethan-1-one]"
6,≤ 100 nM,"CCc1cnc(N2CCC(CCCOc3ccc(CC(=O)N4CC(CNC(CO)(CO)CO)C4)c(F)c3)CC2)nc1 [Compound A34, 1-(3-(((1,3-dihydroxy-2-(hydroxymethyl)propan-2-yl)amino)methyl)azetidin-1-yl)-2-(4-(3-(1-(5-ethylpyrimidin-2-yl)piperidin-4-yl)propoxy)-2-fluorophenyl)ethan-1-one]"
7,≤ 100 nM,"CCc1cnc(N2CCC(CCCOc3ccc(CC(=O)N4CC(CNCCNC(=O)NC(CO)(CO)CO)C4)c(F)c3)CC2)nc1 [Compound A35, 1-(1,3-dihydroxy-2-(hydroxymethyl)propan-2-yl)-3-(2-(((1-(2-(4-(3-(1-(5-ethylpyrimidin-2-yl)piperidin-4-yl)propoxy)-2-fluorophenyl)acetyl)azetidin-3-yl)methyl)amino)ethyl)urea]"
8,≤ 100 nM,"CCc1cnc(N2CCC(CCCOc3cc(F)c(CC(=O)N4CC(CNCC(O)(CO)CO)C4)c(F)c3)CC2)nc1 [Compound A37, 1-(3-(((2,3-dihydroxy-2-(hydroxymethyl)propyl)amino)methyl)azetidin-1-yl)-2-(4-(3-(1-(5-ethylpyrimidin-2-yl)piperidin-4-yl)propoxy)-2,6-difluorophenyl)ethan-1-one]"
